Laboratory results taken from paper PMC10882719 (Frontiers in Neuroscience, 2024).
Read-outs that look alike come from different tables or passages of the source.

How the values were obtained:
168 GPCRs [1] = target: T1, 168 GPCRs (Homo sapiens, UniProt Q9H1C0); format: cell-based
T1 construct: host or cells: PathHunter cell lines
Method: (§1) Studies were performed at Eurofins DiscoverX Corporation (Fremont, CA) using the GPCRmax assay according to the manufacturer’s protocols. […] Activity greater than 30% typically indicates agonist activity and inhibition greater than 50% indicates antagonist activity. This assay uses enzyme fragment complementation with […] as the functional reporter. When a GPCR is activated, […] is recruited and the reporter is detectable. GPCRmax offers a high-throughput screen of 168 GPCRs for agonist or antagonist activity. Briefly, PathHunter cell lines were propagated, seeded into 384-well microplates and incubated at 37°C. […] Microplates were read following signal generation with a PerkinElmer Envision™ instrument for chemiluminescent signal detection. Compound activity was analyzed using CBIS data analysis suite (ChemInnovation, CA) to determine raw values (RLU). For agonist mode assay, percentage activity was calculated using the following formula: % Activity =100% × (mean RLU of test sample - mean RLU of vehicle control) / (mean MAX control ligand - mean RLU of vehicle control). For antagonist mode assay, percentage inhibition was calculated using the following formula: % Inhibition =100% × (1 - (mean RLU of test sample - mean RLU of vehicle control) / (mean RLU of EC80 control - mean RLU of vehicle control)).

168 GPCRs [2] = target: T2, 168 GPCRs (Homo sapiens, UniProt Q5NUL3); format: cell-based
T2 construct: host or cells: PathHunter cell lines
T2 sequence (Q5NUL3 1-361): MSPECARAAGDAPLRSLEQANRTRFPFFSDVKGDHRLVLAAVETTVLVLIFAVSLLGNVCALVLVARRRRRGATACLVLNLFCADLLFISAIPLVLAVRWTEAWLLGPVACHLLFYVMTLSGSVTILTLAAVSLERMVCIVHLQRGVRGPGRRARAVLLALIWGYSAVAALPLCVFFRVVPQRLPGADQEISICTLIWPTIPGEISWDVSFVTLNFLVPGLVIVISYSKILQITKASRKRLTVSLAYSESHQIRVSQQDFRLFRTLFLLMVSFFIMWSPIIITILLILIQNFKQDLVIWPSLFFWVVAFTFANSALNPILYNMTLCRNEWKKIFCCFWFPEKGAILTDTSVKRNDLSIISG
Method: as §1

amygdala gene expression = test: RNA-seq differential gene expression, amygdala; format: in vivo, rat; conditions: 10 mg/kg IP, 8 h
5HT2C receptor [3] = target: T3, 5HT2C receptor (Homo sapiens, UniProt P28335); test: GPCRmax screen, antagonist mode, 5HT2C; format: cell-based; conditions: for % Antagonist Activity: HTR2C
T3 construct: β-galactosidase enzyme fragment (enzyme fragment complementation reporter); host or cells: PathHunter cell lines
T3 sequence (P28335 33-458): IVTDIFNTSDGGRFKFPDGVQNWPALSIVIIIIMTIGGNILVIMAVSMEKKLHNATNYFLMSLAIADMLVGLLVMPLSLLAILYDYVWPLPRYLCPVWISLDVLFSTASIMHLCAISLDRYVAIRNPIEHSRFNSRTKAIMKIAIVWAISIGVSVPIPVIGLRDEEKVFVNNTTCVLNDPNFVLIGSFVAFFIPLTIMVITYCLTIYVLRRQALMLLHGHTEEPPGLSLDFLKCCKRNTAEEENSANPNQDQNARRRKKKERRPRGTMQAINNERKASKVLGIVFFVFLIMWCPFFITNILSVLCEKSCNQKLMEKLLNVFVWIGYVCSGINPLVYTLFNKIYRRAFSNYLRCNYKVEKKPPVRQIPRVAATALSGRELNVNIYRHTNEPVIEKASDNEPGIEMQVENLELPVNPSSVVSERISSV
Method: as §1

[4] = target: T4, serotonin (5HT) transporter (SERT) (Rattus norvegicus, UniProt P31652); test: Competitive radioligand binding, [3H]citalopram, rat brain membranes
T4 construct: Rat brains were dissected and tissue was homogenized in cold lysis buffer; from tissue; host or cells: rat brain membrane preparation
Method: (§2) All studies were performed at Gifford Bioscience, Ltd. (Birmingham, UK) according to standard protocols.
(§3) Radioligands used were: [^3H] Citalopram (PerkinElmer NET1039250UC); [^3H] Nisoxetine (PerkinElmer NET1084250UC); [^3H] WIN35428 (PerkinElmer NET1033250UC). Nonspecific compounds used were Citalopram (Tocris Bioscience 1,427); JHW007 (Tocris Bioscience 4,351); Nomifensine (Abcam ab146004). […] Rat brains were dissected and tissue was homogenized in cold lysis buffer, centrifuged at 100xg for 2 min and the supernatant was placed in a fresh tube. Supernatant was centrifuged at 13,000 × g for 10 min at 4°C to re-pellet the cell lysate. The pellet was resuspended in fresh wash buffer (50 mM Tris–HCl; 5 mM MgCl2; 5 mM EDTA) and centrifuged a third time. The pellet was then resuspended in wash buffer containing 10% sucrose as a cryoprotectant, divided into aliquots (0.3 mL) and stored at −80°C. A sample of the homogenate was analyzed for protein content using the Sigma® BCA assay. On the day of the assay, the membrane preparation was thawed and the pellet resuspended in final assay buffer. […] Filters were then dried under a warm air stream, sealed in polyethylene, scintillation cocktail added, and the radioactivity counted in a Wallac® TriLux 1,450 MicroBeta counter. […] Ki was subsequently calculated using the Cheng-Prusoff equation.

5HT2C receptor [5] = target: T3, 5HT2C receptor; test: GPCRmax screen, agonist mode, 5HT2C; format: cell-based; conditions: for % Agonist Activity: HTR2C
Method: as §1

[6] = target: T5, dopamine (DA) transporter (DAT) (Rattus norvegicus, UniProt P23977); test: Competitive radioligand binding, [3H]WIN35428, rat brain membranes
T5 construct: Rat brains were dissected and tissue was homogenized in cold lysis buffer; from tissue; host or cells: rat brain membrane preparation
Method: as §2, §3

5HT2A receptor = target: T6, 5HT2A receptor (Homo sapiens, UniProt P28223); test: GPCRmax screen, agonist mode, 5HT2A; format: cell-based; conditions: for % Agonist Activity: HTR2A
T6 construct: β-galactosidase enzyme fragment (enzyme fragment complementation reporter); host or cells: PathHunter cell lines
Method: as §1

5HT5A = target: T7, 5HT5A (Homo sapiens, UniProt P47898); test: GPCRmax screen, agonist mode, 5HT5A; format: cell-based; conditions: for % Agonist Activity: HTR5A
T7 construct: β-galactosidase enzyme fragment (enzyme fragment complementation reporter); host or cells: PathHunter cell lines
Method: as §1

T7 sequence (P47898 whole entry, the tested form may be a part): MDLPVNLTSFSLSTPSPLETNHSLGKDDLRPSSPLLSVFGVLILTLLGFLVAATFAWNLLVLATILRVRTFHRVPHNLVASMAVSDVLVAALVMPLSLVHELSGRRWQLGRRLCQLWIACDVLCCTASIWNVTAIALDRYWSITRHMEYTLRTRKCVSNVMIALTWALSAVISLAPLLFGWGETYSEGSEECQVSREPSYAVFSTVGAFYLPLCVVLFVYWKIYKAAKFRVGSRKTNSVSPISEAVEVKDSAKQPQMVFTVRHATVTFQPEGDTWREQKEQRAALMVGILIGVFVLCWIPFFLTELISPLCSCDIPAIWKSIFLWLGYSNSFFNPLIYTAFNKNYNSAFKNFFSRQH
T1 sequence (Q9H1C0 whole entry): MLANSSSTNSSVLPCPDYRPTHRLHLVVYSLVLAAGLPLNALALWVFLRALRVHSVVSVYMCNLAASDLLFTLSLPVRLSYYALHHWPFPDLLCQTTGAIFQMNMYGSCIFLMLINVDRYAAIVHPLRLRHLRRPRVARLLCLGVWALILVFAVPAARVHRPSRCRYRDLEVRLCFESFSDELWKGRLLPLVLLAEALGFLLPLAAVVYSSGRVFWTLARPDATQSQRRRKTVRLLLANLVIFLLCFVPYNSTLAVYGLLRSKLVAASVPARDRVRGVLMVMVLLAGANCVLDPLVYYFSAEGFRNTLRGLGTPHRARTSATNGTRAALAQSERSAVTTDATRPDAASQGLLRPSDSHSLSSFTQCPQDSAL
T6 sequence (P28223 whole entry, the tested form may be a part): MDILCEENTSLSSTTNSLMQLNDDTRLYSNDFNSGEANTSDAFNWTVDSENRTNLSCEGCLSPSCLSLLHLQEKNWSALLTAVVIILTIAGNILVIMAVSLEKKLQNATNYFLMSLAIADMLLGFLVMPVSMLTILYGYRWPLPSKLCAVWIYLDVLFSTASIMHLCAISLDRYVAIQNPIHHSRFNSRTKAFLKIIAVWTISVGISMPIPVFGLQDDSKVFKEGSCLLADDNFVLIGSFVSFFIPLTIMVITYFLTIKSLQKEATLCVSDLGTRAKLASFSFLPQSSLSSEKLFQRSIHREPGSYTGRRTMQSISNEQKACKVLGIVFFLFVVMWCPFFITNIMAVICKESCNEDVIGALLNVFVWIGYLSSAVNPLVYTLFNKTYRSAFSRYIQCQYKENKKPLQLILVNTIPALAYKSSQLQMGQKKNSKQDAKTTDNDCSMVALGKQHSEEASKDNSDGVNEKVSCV
T5 sequence (P23977 whole entry): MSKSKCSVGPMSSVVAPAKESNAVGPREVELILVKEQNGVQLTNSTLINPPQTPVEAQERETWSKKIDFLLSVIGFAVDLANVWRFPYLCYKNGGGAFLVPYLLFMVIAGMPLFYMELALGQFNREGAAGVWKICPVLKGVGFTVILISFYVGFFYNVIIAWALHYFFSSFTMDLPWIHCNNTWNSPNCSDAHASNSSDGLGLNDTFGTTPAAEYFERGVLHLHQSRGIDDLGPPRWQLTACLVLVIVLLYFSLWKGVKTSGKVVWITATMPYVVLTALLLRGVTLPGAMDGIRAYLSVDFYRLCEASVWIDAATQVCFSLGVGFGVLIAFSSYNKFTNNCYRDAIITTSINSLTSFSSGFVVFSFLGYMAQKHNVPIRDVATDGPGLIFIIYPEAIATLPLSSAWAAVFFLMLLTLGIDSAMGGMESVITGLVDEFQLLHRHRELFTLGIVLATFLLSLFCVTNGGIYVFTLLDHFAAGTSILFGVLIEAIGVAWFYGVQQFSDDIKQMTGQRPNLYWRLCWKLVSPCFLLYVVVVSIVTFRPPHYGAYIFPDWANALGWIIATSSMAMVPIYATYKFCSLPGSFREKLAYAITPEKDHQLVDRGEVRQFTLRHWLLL
T4 sequence (P31652 whole entry): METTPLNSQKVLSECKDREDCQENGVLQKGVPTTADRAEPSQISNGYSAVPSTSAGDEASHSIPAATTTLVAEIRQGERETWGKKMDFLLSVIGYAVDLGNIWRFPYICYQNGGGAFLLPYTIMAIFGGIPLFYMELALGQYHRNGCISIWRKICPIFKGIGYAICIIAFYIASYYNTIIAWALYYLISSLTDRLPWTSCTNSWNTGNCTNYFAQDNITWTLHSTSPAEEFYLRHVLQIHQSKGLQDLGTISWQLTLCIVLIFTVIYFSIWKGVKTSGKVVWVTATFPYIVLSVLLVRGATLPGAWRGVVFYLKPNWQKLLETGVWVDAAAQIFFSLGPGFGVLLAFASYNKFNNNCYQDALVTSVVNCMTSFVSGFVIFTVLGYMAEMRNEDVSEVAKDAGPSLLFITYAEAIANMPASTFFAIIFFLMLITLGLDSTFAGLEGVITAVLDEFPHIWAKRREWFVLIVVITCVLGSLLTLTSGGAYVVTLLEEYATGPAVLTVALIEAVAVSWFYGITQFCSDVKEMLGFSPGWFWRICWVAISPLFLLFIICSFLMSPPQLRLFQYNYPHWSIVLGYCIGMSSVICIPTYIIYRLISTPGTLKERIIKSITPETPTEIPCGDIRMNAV

| SMILES | % Agonist Activity (168 GPCRs [1]; GPR92, 1 uM) [%] | % Antagonist Activity (168 GPCRs [1]; GPR92, 1 uM) [%] | % Agonist Activity (168 GPCRs [1]; GPR92, 10 uM) [%] | % Antagonist Activity (168 GPCRs [1]; GPR92, 10 uM) [%] | % Agonist Activity (168 GPCRs [2]; GPR120, 1 uM) [%] | % Antagonist Activity (168 GPCRs [2]; GPR120, 1 uM) [%] | % Agonist Activity (168 GPCRs [2]; GPR120, 10 uM) [%] | % Antagonist Activity (168 GPCRs [2]; GPR120, 10 uM) [%] | % Antagonist Activity (5HT2C receptor [3]; 1 uM) [%] | % Antagonist Activity (5HT2C receptor [3]; 10 uM) [%] | % Agonist Activity (5HT2C receptor [5]; 1 uM) [%] | % Agonist Activity (5HT2C receptor [5]; 10 uM) [%] | % Agonist Activity (5HT2A receptor; 1 uM) [%] | % Agonist Activity (5HT2A receptor; 10 uM) [%] | % Agonist Activity (5HT5A; 1 uM) [%] | % Agonist Activity (5HT5A; 10 uM) [%] | also measured |
| --- | --- | --- | --- | --- | --- | --- | --- | --- | --- | --- | --- | --- | --- | --- | --- | --- | --- |
| CNC(C)Cc1ccc2c(c1)OCO2 (stereo not drawn) [MDMA, 3,4-Methylenedioxy methamphetamine, reference compound] | -4 | 6.8 | -2.2 | 8 | -3.7 | 11.3 | -4.4 | 8.8 | 22.5 | 52.2 | 15.9 | 28 | 4.9 | 27.5 | 7.2 | 0.8 | Additional genes significantly regulated by this drug only (amygdala gene expression; vs vehicle): 1,313; % antagonist activity (inhibition), 5HT2C (5HT2C receptor [3]; Figure 2B, threshold 50% inhibition): 52.2%; Ki ([4]; read-out: Ki, SERT, competitive radioligand binding, rat brain membranes, Cheng-Prusoff): 2.62 µM; % agonist activity, 5HT2C (5HT2C receptor [5]; 10 μM, cutoff 30% activity): 28.0%; Ki ([6]; read-out: Ki, DAT, competitive radioligand binding, rat brain membranes, Cheng-Prusoff): 5.11 µM; % agonist activity, 5HT2A (5HT2A receptor; 10 μM, cutoff 30% activity): 27.5% |
| CNC(C)C(=O)c1ccc2c(c1)OCO2 (stereo not drawn) [methylone] | -1.6 | -8 | -3.5 | 5.8 | -5.1 | 46.5 | -5.8 | 40.3 | 21.1 | 24.2 | 1.4 | 3.7 | -0.1 | 1.4 | 13.6 | 13.9 | Share of genes regulated by this drug that are also regulated by the other drug (amygdala gene expression): 87%; Ki [4]: 4.15 µM; Ki [6]: 5.73 µM; % agonist activity, 5HT5A (greatest activity detected) (5HT5A; 1 or 10 μM, threshold 30% activity): 13.9% |
